From patent US10398751B2, “Pharmaceutical compositions of water soluble peptides with poor solubility in isotonic conditions and methods for their use” (STRONGBRIDGE IRELAND LIMITED, priority 2016, dated 2019)
Converted amounts (≈) assume the structure as drawn. “And” between values parts separate entries of the source, which are not always exact repeats. Equal entries are not always repeated. Structures can show the parent of a compound that is named as a salt. Each block holds one compound with its values, some of them ahead of it.

Tests used:
[1] = Solubility and surface activity in PBS under physiological conditions (37° C.); format: physicochemical; conditions: COR005 10 mg/ml; for Surface tension (dyne/cm) / Effect of surface tension (% of baseline): PBS pH 7.4, 37° C.; for solubility: PBS, pH 7.4, PBS pH 7.4, 37° C.
Experimental: Table 6 summarizes the effects of additives on the surface activity profile of COR005 acetate under physiological conditions (37° C.) that emulate the release of COR005 at the injection site.

human lymphocytes = assay: Human peripheral blood lymphocytes proliferation assays; format: cell-based
[2] = Circulatory half-life after subcutaneous administration to rats; conditions: rat, in vivo, sc
Excerpt: The unique pharmacokinetic profile of veldoreotide acetate as evaluated in animals is consistent with its metabolic stability as evaluated in-vitro against various enzymes and tissue homogenates. […] This prolonged half-life is due to its unique “flip-flop” kinetics, a result of its slow release from the injection site.

[3] = Quantitative assessment of veldoreotide acetate solubility by HPLC; format: physicochemical; conditions: read-out: Solubility (g/liter) - HPLC
Excerpt: The solubility of veldoreotide acetate in aqueous media was screened by the following method. A fixed amount of 10 milligrams of the peptide was weighed and dissolved at ambient temperature by increased (incremental) volumes of the tested medium until a complete solubility was observed, i.e, clear/transparent solution and absence of any precipitates (the solubility endpoint values were defined according to USP guidance). Following the results of the screening studies, several media were selected for verification studies based on quantitative assessment of the peptide concentration by HPLC (maximal solubility). The results of the screening study are depicted in Table 1 while the results of the verification studies are included in Table 2.

[4] = Solubility in Tris-HCl and lysine solutions; format: physicochemical
Experimental: In light of the solubility of veldoreotide acetate in Tris-HCl, the solubility of veldoreotide acetate was tested in solutions containing L-lysine and L-lysine HCl.

[5] = test system: CHO-cells expression cloned human SST-R5; assay: Growth inhibition of CHO cells; format: cell-based
[6] = Density, pH and surface tension of solutions (capillary method); format: physicochemical; conditions: for reduction of surface tension of water: DDW, baseline 64.9 dyne/cm
Experimental: Tween 80 was used as a control surfactant for comparison. Densities were measured on 1 mL fixed volume samples. […] The effect of veldoreotide acetate on the pH of double distilled water (DDW) was the same at all veldoreotide acetate concentrations. The pH of DDW of 5.0 was reduced to pH 4.5. The effect of veldoreotide acetate on the density of DDW (starting density of DDW was 1.003 g/ml) was concentration dependent from 1.4 mg/ml to 21.5 mg/ml with density ranging from 0.986 to 0.998 g/ml respectively. However, at veldoreotide acetate concentrations of 45 and 102 mg/ml the density was increased above the starting density of DDW. […] The effect of veldoreotide acetate on the surface tension of DDW (starting surface tension was 64.9 dyne/cm) was consistent with veldoreotide acetate behaving as a peptide amphiphile (surfactant). The surface tension of DDW was reduced by veldoreotide acetate at maximum from 64.9 to 45 dyne/cm. In order to elucidate the meaning of this effect, Tween 80 was used as a reference surfactant. Other surfactants include Polexamer 188. The reduction of surface tension induced by Tween 80 was in the range of 40% (from 64.9 dyne/cm to about 39 dyne/cm), in comparison to veldoreotide acetate of 30% (from 64.9 dyne/cm to about 45 dyne/cm). Note that, under these experimental conditions; the effect of Tween 80 indicated a concentration-effect relationship. Whereas, the effect of veldoreotide acetate on the reduction of surface tension was at the same range for all concentrations tested.
The data of table 4 show the surface activity of highly concentrated COR005 acetate (200 mg/ml), with or without additives in WFI, which emulates the preparation conditions of the primary emulsion of the microspheres. The results of Test 1 and 2 (Table 4) show the effect of COR005 acetate on the surface tension of water. When COR005 acetate is dissolved in water the surface tension is reduced by about 36%, from 68.5 dyne/cm for the water alone to 44 dyne/cm for the solution of water with CR005 acetate at 200 mg/ml.

[7] = test system: human Carcinoid cell line; assay: Chromogranin A release; format: cell-based
[8] = Comparative surface tension of peptides in water for injection; format: physicochemical; conditions: 10 mg/ml in WFI
[9] = 1.4 mg/ml in DDW pH 4.5, 25° C.
[10] = 102 mg/ml in DDW pH 4.5, 25° C.
[11] = 200 mg/ml + 50 mg/ml HPBCD in WFI (HPB:PEP 1:4), 5° C.
[12] = 200 mg/ml + 100 mg/ml HPBCD in WFI (HPB:PEP 1:2), 5° C.
[13] = 200 mg/ml in 5% Dextrose in WFI (DEX:PEP 1:8), 5° C.

Surface tension (dyne/cm) ([1]; HPB:PEP 1:4): 39 dyne/cm
Surface tension (dyne/cm) ([1]; no additive): 34 dyne/cm
half-life [2]: ~180 min
solubility ([3]; 20 mM HEPES buffer, 20 mM HEPES, pH 7.2): 212 g/L
solubility ([3]; 20 mM phosphate buffer, 20 mM Phosphate (10 mM Na2HPO4 + 10 mM NaH2PO4), pH 7.2): 212 g/L
solubility ([3]; 0.9% NaCl, pH 4.5): 2.31 g/L
solubility ([3]; PBS, pH 7.4): 3.25 g/L
solubility ([3]; water): 234 g/L
solubility ([4]; 20 mM Tris-HCl): highly soluble
solubility ([4]; Tris-HCl increased to 137 mM or 117 mM NaCl added): significantly reduced
effect on solubility of veldoreotide acetate ([4]; addition of L-lysine HCl, isotonic media): substantially improved
effect on solubility of veldoreotide acetate ([4]; solution containing L-lysine): did not substantially improve
% change in surface tension compared to baseline [6, 9]: −30%
Density (g/ml) Weighted 1 ml [6, 9]: 0.986 g/mL
Surface tension (dyne/cm) capillary method [6, 9]: 45.2 dyne/cm
density of DDW solution ([6]; 1.4 mg/ml to 21.5 mg/ml, starting density of DDW 1.003 g/ml): 0.986 to 0.998 g/mL
% change in surface tension compared to baseline ([6]; 12 mg/ml in DDW pH 4.5, 25° C.): −28%
Density (g/ml) Weighted 1 ml ([6]; 12 mg/ml in DDW pH 4.5, 25° C.): 0.994 g/mL
Surface tension (dyne/cm) capillary method ([6]; 12 mg/ml in DDW pH 4.5, 25° C.): 46.9 dyne/cm
% change in surface tension compared to baseline ([6]; 21 mg/ml in DDW pH 4.5, 25° C.): −27%
Density (g/ml) Weighted 1 ml ([6]; 21 mg/ml in DDW pH 4.5, 25° C.): 0.998 g/mL
Surface tension (dyne/cm) capillary method ([6]; 21 mg/ml in DDW pH 4.5, 25° C.): 47.1 dyne/cm
% change in surface tension compared to baseline ([6]; 45 mg/in DDW pH 4.5, 25° C.): −29%
Density (g/ml) Weighted 1 ml ([6]; 45 mg/in DDW pH 4.5, 25° C.): 1.003 g/mL
Surface tension (dyne/cm) capillary method ([6]; 45 mg/in DDW pH 4.5, 25° C.): 45.97 dyne/cm
% change in surface tension compared to baseline [6, 10]: −24%
Density (g/ml) Weighted 1 ml [6, 10]: 1.015 g/mL
Surface tension (dyne/cm) capillary method [6, 10]: 49.3 dyne/cm
% change in surface tension compared to baseline [6, 11]: −34%
Density (g/ml) Weighted 1 ml [6, 11]: 1.04 g/mL
Surface tension (dyne/cm) capillary method [6, 11]: 45 dyne/cm
% change in surface tension compared to baseline [6, 12]: −26%
Density (g/ml) Weighted 1 ml [6, 12]: 1.12 g/mL
Surface tension (dyne/cm) capillary method ([6]; 200 mg/ml + 100 mg/ml HPBCD in WFI (HPB:PEP 1:2), 5° C., acetate salt): 51 dyne/cm
Surface tension (dyne/cm) capillary method ([6]; 200 mg/ml + 100 mg/ml HPBCD in WFI (HPB:PEP 1:2), 5° C., listed as peptide, acetate salt): 52 dyne/cm and 51 dyne/cm
% change in surface tension compared to baseline [6, 13]: −14%
Density (g/ml) Weighted 1 ml [6, 13]: 1.03 g/mL
Surface tension (dyne/cm) capillary method ([6]; 200 mg/ml in 5% Dextrose in WFI (DEX:PEP 1:8), 5° C., acetate salt): 54 dyne/cm
Surface tension (dyne/cm) capillary method ([6]; 200 mg/ml in 5% Dextrose in WFI (DEX:PEP 1:8), 5° C., listed as peptide, acetate salt): 54 dyne/cm
Density (g/ml) Weighted 1 ml ([6]; 200 mg/ml in WFI, 5° C.): 1.03 g/mL
Surface tension (dyne/cm) capillary method ([6]; 200 mg/ml in WFI, 5° C.): 44 dyne/cm
% change in surface tension compared to baseline ([6]; 200 mg/ml in WFI, 5° C., acetate salt): −36%
% change in surface tension compared to baseline ([6]; 200 mg/ml in WFI, 5° C., listed as COR005 acetate, acetate salt): about 36%
surface tension of DDW solution ([6]; DDW pH 5.0, 25° C., baseline 64.9 dyne/cm (text summary, concentration not specified), acetate salt): about 45 dyne/cm
reduction of surface tension of water ([6]; 25° C., acetate salt): 30%
pH of DDW solution ([6]; all concentrations, DDW pH 5.0 before): 4.5
SMILES: C[C@@H](O)[C@@H]1NC(=O)[C@H](CCCCN)NC(=O)[C@@H](Cc2c[nH]c3ccccc23)NC(=O)[C@H](Cc2c[nH]c3ccccc23)NC(=O)[C@H](Cc2ccccc2)NC(=O)CCCNC(=O)CCCN(CC(N)=O)C(=O)[C@H](Cc2ccccc2)NC1=O [Veldoreotide Acetate, Cyclo(-γ-aminobutyryl-L-phenylalanyl-L-tryptophanyl-D-tryptophanyl-L-lysyl-L-threonyl-L-phenylalanyl-N-carbamoylmethyl-γ-aminobutyryl), acetate salt]
mitogenicity for human lymphocytes (human lymphocytes): non-mitogenic
growth inhibition [5]: significant growth inhibition
Chromogranin A release [7]: inhibits

Surface tension (dyne/cm) ([1]; Dextrose 5 wt %): 49 dyne/cm
Effect of surface tension (% of baseline) ([1]; Dextrose 5 wt %, at 48 h): (−18% at 48 h)
Effect of surface tension (% of baseline) ([1]; Dextrose 5 wt %, baseline PBS/5% DEX): −14%
Surface tension (dyne/cm) ([1]; HPB:PEP 1:2): 45 dyne/cm
Effect of surface tension (% of baseline) ([1]; HPB:PEP 1:2, baseline PBS): −6%
Effect of surface tension (% of baseline) ([1]; HPB:PEP 1:4, baseline PBS): −19%
Surface tension (dyne/cm) ([1]; HPB:PEP 10:1): 50 dyne/cm
Effect of surface tension (% of baseline) ([1]; HPB:PEP 10:1, baseline PBS): +4%
Effect of surface tension (% of baseline) ([1]; no additive, baseline PBS): −29%
solubility ([1]; Dextrose 5 wt %): 3300 µg/mL (≈ 2.94 mM)
solubility ([1]; HPB:PEP 1:2): 5000 µg/mL (≈ 4.45 mM)
solubility ([1]; HPB:PEP 1:4): 3900 µg/mL (≈ 3.47 mM)
solubility ([1]; HPB:PEP 10:1): 8900 µg/mL (≈ 7.92 mM)
solubility ([1]; no additive): 3600 µg/mL (≈ 3.2 mM)
Effect of reduced surface tension (%) ([8]; baseline WFI): −37%
Water surface tension (dyne/cm) ([8]; baseline WFI 52): 33 dyne/cm
reduction of surface tension of water ([6]; 25° C.): more than 30%
SMILES: C[C@@H](O)[C@@H]1NC(=O)[C@H](CCCCN)NC(=O)[C@@H](Cc2c[nH]c3ccccc23)NC(=O)[C@H](Cc2c[nH]c3ccccc23)NC(=O)[C@H](Cc2ccccc2)NC(=O)CCCNC(=O)CCCN(CC(N)=O)C(=O)[C@H](Cc2ccccc2)NC1=O [Veldoreotide, cyclo(-γ-aminobutyryl-L-phenylalanyl-L-tryptophanyl-D-tryptophanyl-L-lysyl-L-threonyl-L-phenylalanyl-N-carbamoylmethyl-γ-aminobutyryl)]
